# Laboratory results as given in US8466143B2, “Azepine derivatives as pharmaceutical agents” (Exelixis, Inc., priority 2003, dated 2013).
# pEC50: −log10 of the molar value.
# Molecular target: T1, full length human farnesoid X receptor (Homo sapiens, UniProt Q96RI1)
# T1 construct: CMX-farnesoid X receptor (full length human farnesoid X receptor); expressed in transfected cells; host or cells: CV-1 African Green Monkey Kidney cells
# T1 sequence (Q96RI1 1-472 isoform Q96RI1-2): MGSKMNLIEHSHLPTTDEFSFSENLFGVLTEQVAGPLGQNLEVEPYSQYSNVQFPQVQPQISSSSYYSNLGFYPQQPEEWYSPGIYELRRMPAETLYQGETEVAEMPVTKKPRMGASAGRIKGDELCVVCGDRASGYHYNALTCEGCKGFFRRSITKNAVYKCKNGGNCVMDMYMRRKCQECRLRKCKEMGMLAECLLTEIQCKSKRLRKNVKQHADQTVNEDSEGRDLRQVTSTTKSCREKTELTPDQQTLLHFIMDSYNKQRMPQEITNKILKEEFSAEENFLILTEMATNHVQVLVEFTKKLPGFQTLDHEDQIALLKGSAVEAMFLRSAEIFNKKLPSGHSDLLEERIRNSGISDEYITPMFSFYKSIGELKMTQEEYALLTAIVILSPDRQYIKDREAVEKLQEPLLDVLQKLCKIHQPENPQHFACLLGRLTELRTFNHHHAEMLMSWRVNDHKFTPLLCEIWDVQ
# T1 sequence (P19793 1-462 partner): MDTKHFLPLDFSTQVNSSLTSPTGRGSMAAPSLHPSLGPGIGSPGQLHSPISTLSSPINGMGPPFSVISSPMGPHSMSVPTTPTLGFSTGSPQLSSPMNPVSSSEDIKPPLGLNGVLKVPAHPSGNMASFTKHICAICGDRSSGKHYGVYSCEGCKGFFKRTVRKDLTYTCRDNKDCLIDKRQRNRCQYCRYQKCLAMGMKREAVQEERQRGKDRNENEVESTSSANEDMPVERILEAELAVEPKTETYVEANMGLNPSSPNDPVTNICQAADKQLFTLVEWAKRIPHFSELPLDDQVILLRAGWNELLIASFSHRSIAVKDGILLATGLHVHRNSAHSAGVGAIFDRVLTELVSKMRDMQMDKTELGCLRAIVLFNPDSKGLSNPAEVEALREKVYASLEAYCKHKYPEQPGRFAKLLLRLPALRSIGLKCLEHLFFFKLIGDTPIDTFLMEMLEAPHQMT
# Test: farnesoid X receptor/ECREx7 co-transfection assay
# Type: cell-based
# Conditions: CV-1 cells, agonist mode
# Procedure: The basic co-transfection protocol for measuring the farnesoid X receptor activity is as follows. CV-1 African Green Monkey Kidney cells were plated 24 hours before transfection to achieve approximately 70-80 percent confluency. Cells were transfected with the following expression vectors, CMX-farnesoid X receptor (full length human farnesoid X receptor), CMX-RXRα (full length human RXR), Luc12 ((ECREx7-Tk-Luciferase) luciferase reporter gene construct. (See WO 00/76523, Venkateswaran et al., (2000) J. Biol. Chem. 275 14700-14707). A CMX-β-Galactosidase expression vector was used as a transfection control. The transfection reagent used was DOTAP (Boehringer Mannheim). Cells were incubated with the DOTAP/DNA mixture for 5 hours after which the cells were harvested and plated onto either 96 well or 384 well plates containing the appropriate concentration of test compound. The assay was allowed to continue for an additional 18-20 hours, after which the cells were lysed, with lysis buffer (1% triton X 100, 10% glycerol, 5 mM Dithiothreitol, 1 mM EGTA, 25 mM Tricine, pH 7.8) and the luciferase activity measured in the presence of Luciferase assay buffer (0.73 mM ATP, 22.3 mM Tricine, 0.11 mM EGTA, 0.55 mM Luciferin, 0.15 mM Coenzyme A, 0.5 mM HEPES, 10 mM Magnesium sulphate) on a standard luminomter plate reader (PE Biosystems, NorthStar Reader), using recommended operating instructions and conditions.
# Both the farnesoid X receptor/ECREx7 co-transfection assay (Example 10) and the TR-FRET assay (Example 9) can be used to establish the EC50/IC50 values for potency and percent activity or inhibition for efficacy. Efficacy defines the activity of a compound relative to a high control (chenodeoxycholic acid, CDCA) or a low control (DMSO/vehicle). The dose response curves are generated from an 8 point curve with concentrations differing by ½ LOG units. Each point represents the average of 4 wells of data from a 384 well plate. The curve for the data is generated by using the equation: Y=Bottom+(Top-Bottom)/(1+10^((Log EC50−X)*HillSlope))
# The EC50/IC50 is therefore defined as the concentration at which an agonist or antagonist elicits a response that is half way between the Top (maximum) and Bottom (baseline) values. The EC50/IC50 values represented are the averages of at least 3 independent experiments. The determination of the relative efficacy or % control for an agonist is by comparison to the maximum response achieved by chenodeoxycholic acid that is measured individually in each dose response experiment.
# For the antagonist assay, CDCA is added to each well of a 384 well plate to elicit a response. The % inhibition for each antagonist is therefore a measurement of the inhibition of the activity of CDCA. In this example, 100% inhibition would indicate that the activity of CDCA has been reduced to baseline levels, defined as the activity of the assay in the presence of DMSO only.
row,SMILES,pEC50
1,"CCOC(=O)C1=CN(C(=O)c2ccc(F)c(F)c2)CC(C)(C)c2ccsc21 [6-(3,4-Difluoro-benzoyl)-4,4-dimethyl-5,6-dihydro-4H-thieno[2,3-d]azepine-8-carboxylic acid ethyl ester]",≥ 7.00
2,"CCOC(=O)c1cc2c([nH]1)C(C(=O)OC(C)C)=CN(C(=O)c1ccc(F)c(F)c1)CC2(C)C [6-(3,4-Difluoro-benzoyl)-4,4-dimethyl-1,4,5,6-tetrahydro-pyrrolo[2,3-d]azepine-2,8-dicarboxylic acid 2-ethyl ester 8-isopropyl ester]",≥ 7.00
3,"CCOC(=O)c1cc2c(n1C)C(C(=O)OC(C)C)=CN(C(=O)c1ccc(F)c(F)c1)CC2(C)C [6-(3,4-Difluoro-benzoyl)-1,4,4-trimethyl-1,4,5,6-tetrahydro-pyrrolo[2,3-d]azepine-2,8-dicarboxylic acid 2-ethyl ester 8-isopropyl ester]",≥ 7.00
4,"CCOC(=O)C1=CN(C(=O)c2ccc(F)cc2)CCc2c1[nH]c1c2CCCC1 [3-(4-Fluoro-benzoyl)-1,2,3,6,7,8,9,10-octahydro-azepino[4,5-b]indole-5-carboxylic acid ethyl ester]",≥ 6.00
5,"CCOC(=O)C1=CN(C(=O)c2ccc(F)cc2)CC(C)(C)c2c1[nH]c1c2CCCC1 [3-(4-Fluoro-benzoyl)-1,1-dimethyl-1,2,3,6,7,8,9,10-octahydro-azepino[4,5-b]indole-5-carboxylic acid ethyl ester]",≥ 7.00
6,"CCOC(=O)C1CN(C(=O)c2ccc(F)cc2)CC(C)(C)c2c1[nH]c1c2CCCC1 (centres unmarked) [3-(4-Fluoro-benzoyl)-1,1-dimethyl-1,2,3,4,5,6,7,8,9,10-decahydro-azepino[4,5-b]indole-5-carboxylic acid ethyl ester]",≥ 7.00
7,"CCOC(=O)C1=CN(C(=O)c2ccc(F)c(F)c2)CC(C)(C)c2cc(C(=O)OCC)[nH]c21 [6-(3,4-Difluoro-benzoyl)-4,4-dimethyl-1,4,5,6-tetrahydro-pyrrolo[2,3-d]azepine-2,8-dicarboxylic acid diethyl ester]",≥ 7.00

# Same assay, conditions: relative to maximum response of chenodeoxycholic acid (CDCA)
row,SMILES,efficacy
1,"CCOC(=O)C1=CN(C(=O)c2ccc(F)cc2)CCc2c1[nH]c1c2CCCC1 [3-(4-Fluoro-benzoyl)-1,2,3,6,7,8,9,10-octahydro-azepino[4,5-b]indole-5-carboxylic acid ethyl ester]",greater than 100%
